Among the data in BindingDB's records for doi:10.1016/j.bmcl.2009.02.015 (Pfizer, 2009) are IC50 values, retold here.

The experiment has as its target Cyclin-dependent kinase 2 (Homo sapiens) (UniProt P24941). In words: Inhibition of CDK2.

`COc1ccc2sc3c(c2c1)SCCNC3=O` had a half-inhibitory concentration (IC50) of 150 nM.
For the compound `COc1ccc2sc3c(c2c1)NCCNC3=O` [3-Methoxy-5,6,7,8-tetrahydro-10-thia-5,8-diaza-benzo[a]azulen-9-one], the IC50 turned out to be 160 nM.
As for `COc1ccc2sc3c(c2c1)CCCNC3=O` [3-Methoxy-5,6,7,8-tetrahydro-10-thia-8-aza-benzo[a]azulen-9-one], the figure is 360 nM.
The value for `COC(=O)COc1ccc2sc3c(c2c1)NC[C@@H](C)NC3=O` [((R)-7-Methyl-9-oxo-6,7,8,9-tetrahydro-5H-10-thia-5,8-diaza-benzo[a]azulen-3-yloxy)-acetic acid methyl ester] was 3090 nM; that for `COCCOc1ccc2sc3c(c2c1)NC[C@@H](C)NC3=O` [(R)-3-(2-Methoxy-ethoxy)-7-methyl-5,6,7,8-tetrahydro-10-thia-5,8-diaza-benzo[a]azulen-9-one] was 81 nM.
As for `COc1cccc(COc2ccc3sc4c(c3c2)NC[C@@H](C)NC4=O)c1` [(R)-3-(3-Methoxy-benzyloxy)-7-methyl-5,6,7,8-tetrahydro-10-thia-5,8-diaza-benzo[a]azulen-9-one], the figure is 64 nM; as for `C[C@@H]1CNc2c(sc3ccc(OCC4CC4)cc23)C(=O)N1` [(R)-3-Cyclopropylmethoxy-7-methyl-5,6,7,8-tetrahydro-10-thia-5,8-diaza-benzo[a]azulen-9-one], 52 nM.
`C[C@@H]1CNc2c(sc3ccc(O)cc23)C(=O)N1` [(R)-3-Hydroxy-7-methyl-5,6,7,8-tetrahydro-10-thia-5,8-diaza-benzo[a]azulen-9-one]: the IC50 is 26 nM.
In turn, `CC(C)COc1ccc2sc3c(c2c1)NC[C@@H](C)NC3=O` [(R)-3-Isobutoxy-7-methyl-5,6,7,8-tetrahydro-10-thia-5,8-diaza-benzo[a]azulen-9-one] showed a 50% inhibitory concentration (IC50) of 11 nM.
The value for `CCCNC[C@@H]1CNc2c(sc3ccc(OC)cc23)C(=O)N1` [(R)-3-Methoxy-7-propylaminomethyl-5,6,7,8-tetrahydro-10-thia-5,8-diaza-benzo[a]azulen-9-one] was 2600 nM; that for `COc1ccc2sc3c(c2c1)NC[C@@H](CNCc1ccccc1)NC3=O` [(R)-7-(Benzylamino-methyl)-3-methoxy-5,6,7,8-tetrahydro-10-thia-5,8-diaza-benzo[a]azulen-9-one] was 2700 nM; that for `COc1ccc2sc3c(c2c1)NC[C@@H](CN)NC3=O` [(R)-7-Aminomethyl-3-methoxy-5,6,7,8-tetrahydro-10-thia-5,8-diaza-benzo[a]azulen-9-one] was 146 nM.
As for `CCNC[C@@H]1CNc2c(sc3ccc(OC)cc23)C(=O)N1` [(R)-7-Ethylaminomethyl-3-methoxy-5,6,7,8-tetrahydro-10-thia-5,8-diaza-benzo[a]azulen-9-one], the figure is 3100 nM.
The value for `COc1ccc2sc3c(c2c1)NC[C@@H](CO)NC3=O` [(S)-7-Hydroxymethyl-3-methoxy-5,6,7,8-tetrahydro-10-thia-5,8-diaza-benzo[a]azulen-9-one] was 25 nM.
`COc1ccc2sc3c(c2c1)NC[C@@H](CN(C)Cc1ccccc1)NC3=O` [(S)-7-[(Benzyl-methyl-amino)-methyl]-3-methoxy-5,6,7,8-tetrahydro-10-thia-5,8-diaza-benzo[a]azulen-9-one] had a half-maximal inhibitory concentration (IC50) of 3170 nM.
